What is called IC50 is the concentration at which inhibition is half-maximal. The term Ki denotes the equilibrium dissociation constant of an inhibitor or competing ligand from its target. Higher therefore signals weaker binding.

Data on ten compounds can be found in patent US7244837B2, “Insect monoamine transporter and methods of use thereof” (The University of Western Ontario, priority 1999, dated 2007).

This assay has as its target T1, OA/TAT (octopamine/tyramine transporter) (Trichoplusia ni, UniProt Q95VZ4, D309A/R312W).
T1 sequence (Q95VZ4 75-744 D309A/R312W): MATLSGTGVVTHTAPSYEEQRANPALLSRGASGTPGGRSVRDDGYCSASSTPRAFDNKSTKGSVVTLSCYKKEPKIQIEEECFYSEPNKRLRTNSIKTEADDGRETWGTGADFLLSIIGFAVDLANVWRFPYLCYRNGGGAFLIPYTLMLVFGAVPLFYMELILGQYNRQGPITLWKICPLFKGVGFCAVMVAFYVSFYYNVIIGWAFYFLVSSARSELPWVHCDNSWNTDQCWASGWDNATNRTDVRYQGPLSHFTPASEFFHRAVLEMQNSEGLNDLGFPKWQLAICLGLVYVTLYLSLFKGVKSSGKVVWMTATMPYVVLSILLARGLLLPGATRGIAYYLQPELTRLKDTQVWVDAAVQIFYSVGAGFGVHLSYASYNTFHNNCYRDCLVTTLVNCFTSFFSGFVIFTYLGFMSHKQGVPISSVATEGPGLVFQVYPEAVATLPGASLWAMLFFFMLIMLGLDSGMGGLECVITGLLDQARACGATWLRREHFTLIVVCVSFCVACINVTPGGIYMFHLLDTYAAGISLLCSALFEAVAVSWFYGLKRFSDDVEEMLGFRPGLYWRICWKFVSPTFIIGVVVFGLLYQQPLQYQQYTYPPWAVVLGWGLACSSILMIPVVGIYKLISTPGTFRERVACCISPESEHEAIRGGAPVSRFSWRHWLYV
The assay can be described thus: 3H-dopamine uptake by OA/TAT expressed in baculovirus-infected Sf21 insect cells (transport assay). The note with it: for inhibition at 10 µM: read-out: % Inhibition of 3H-Dopamine uptake by OA/TAT. The assay is classed as cell-based.

With `NCCc1ccc(O)cc1` [Tyramine], the 50% inhibitory concentration (IC50) is 390 ± 110 nM, the inhibition constant Ki worked out at 350 ± 100 nM and the inhibition at 10 µM is 96.5%.

Regarding `NC[C@H](O)c1ccc(O)c(O)c1` [Norepinephrine, (−)-Arterenol], the half-inhibitory concentration (IC50) was 22000 ± 2940 nM, the inhibitory constant (Ki) is 20000 ± 2670 nM and the inhibition at 10 µM stood at 27.2%.

For `CNCC(O)c1ccc(O)cc1` (racemic) [Synephrine, (±)-Synephrine], the inhibition at 10 µM stood at 6.39%.

Regarding `Fc1ccc(C(OCCN2CCN(CCCc3ccccc3)CC2)c2ccc(F)cc2)cc1` [GBR12909], the inhibition at 10 µM is -10%.

As to `NCC(O)c1ccc(O)cc1` (racemic) [Octopamine, DL-Octopamine], the IC50 was determined as 1920 ± 280 nM, the affinity corresponds to a Ki of 1740 ± 250 nM and the inhibition at 10 µM is 80.9%.

As for `NCCc1c[nH]cn1` [Histamine], the inhibition at 10 µM is -1.81%.

For the compound `NCCc1c[nH]c2ccc(O)cc12` [Serotonin, 5-Hydroxytryptamine], the inhibition at 10 µM was -3.6%.

`NCCc1c[nH]c2ccccc12` [Tryptamine]: the inhibition at 10 µM was found to be 9.57%.

On to `CN[C@@H](C)[C@@H](O)c1ccccc1` [Pseudoephedrine, (−)-ψ-Ephedrine], for which the inhibition at 10 µM was 1.31%.

For the compound `NCCc1ccc(O)c(O)c1` [Dopamine, 3-Hydroxytyramine], the midpoint of inhibition, the IC50, lay at 4100 ± 1020 nM; the affinity, expressed as Ki, was 3720 ± 920 nM; the inhibition at 10 µM amounted to 70.2%.
